Measured values taken from the supplement of paper PMC10307832.

How the values were obtained:
Experiment in all cases: relative viability (nuclei count vs DMSO), 5 days (fraction); higher = more cells survive
AGI-6780 + Alpelisib = compound: O=C(Nc1cccc(C(F)(F)F)c1)Nc1cc(S(=O)(=O)NC2CC2)ccc1-c1ccsc1 [AGI-6780] + Cc1nc(NC(=O)N2CCC[C@H]2C(N)=O)sc1-c1ccnc(C(C)(C)C(F)(F)F)c1 [Alpelisib] (partner 2 µM)
Method in brief: (§1)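 Values are medians from duplicate plates. Each reflects relative viability, defined as the nuclei count of treated wells over that of vehicle wells. Lung cancer cell lines in 1536-well plates were pin-tool dosed one day after seeding with one drug alone or with a fixed anchor-drug dose plus five library-drug doses (not always all listed) in √10 steps, then fixed, stained and imaged at 4× after 5 days.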

AGI-6780 + Bortezomib = compound: O=C(Nc1cccc(C(F)(F)F)c1)Nc1cc(S(=O)(=O)NC2CC2)ccc1-c1ccsc1 [AGI-6780] + CC(C)C[C@H](NC(=O)[C@H](Cc1ccccc1)NC(=O)c1cnccn1)B(O)O [Bortezomib] (partner 0.002 µM)
Method in brief: as §1

AGI-6780 + Olaparib = compound: O=C(Nc1cccc(C(F)(F)F)c1)Nc1cc(S(=O)(=O)NC2CC2)ccc1-c1ccsc1 [AGI-6780] + O=C(c1cc(Cc2n[nH]c(=O)c3ccccc23)ccc1F)N1CCN(C(=O)C2CC2)CC1 [Olaparib] (partner 8 µM)
Method in brief: as §1

AGI-6780 + Pemetrexed = compound: O=C(Nc1cccc(C(F)(F)F)c1)Nc1cc(S(=O)(=O)NC2CC2)ccc1-c1ccsc1 [AGI-6780] + Nc1nc2[nH]cc(CCc3ccc(C(=O)N[C@@H](CCC(=O)O)C(=O)O)cc3)c2c(=O)[nH]1 [Pemetrexed] (partner 0.2 µM)
Method in brief: as §1

Cell Line | relative viability (AGI-6780 + Alpelisib; first compound 0.08 µM) | relative viability (AGI-6780 + Alpelisib; first compound 0.253 µM) | relative viability (AGI-6780 + Alpelisib; first compound 0.8 µM) | relative viability (AGI-6780 + Alpelisib; first compound 8 µM) | relative viability (AGI-6780 + Bortezomib; first compound 0.08 µM) | relative viability (AGI-6780 + Bortezomib; first compound 0.253 µM) | relative viability (AGI-6780 + Bortezomib; first compound 0.8 µM) | relative viability (AGI-6780 + Bortezomib; first compound 2.53 µM) | relative viability (AGI-6780 + Bortezomib; first compound 8 µM) | relative viability (AGI-6780 + Olaparib; first compound 0.08 µM) | relative viability (AGI-6780 + Olaparib; first compound 0.253 µM) | relative viability (AGI-6780 + Olaparib; first compound 0.8 µM) | relative viability (AGI-6780 + Olaparib; first compound 2.53 µM) | relative viability (AGI-6780 + Olaparib; first compound 8 µM) | relative viability (AGI-6780 + Pemetrexed; first compound 0.08 µM) | relative viability (AGI-6780 + Pemetrexed; first compound 0.253 µM) | relative viability (AGI-6780 + Pemetrexed; first compound 0.8 µM) | relative viability (AGI-6780 + Pemetrexed; first compound 2.53 µM) | relative viability (AGI-6780 + Pemetrexed; first compound 8 µM) | relative viability (AGI-6780 + Alpelisib; first compound 2.53 µM)
LCLC-97TM1 | 0.211 | 0.246 | 0.393 | 0.351 | 0.867 | 0.78 | 0.871 | 0.528 | 0.68 | 0.41 | 0.532 | 0.394 | 0.264 | 0.378 | 0.173 | 0.157 | 0.192 | 0.156 | 0.192 | 
LCLC-103H | 0.916 | 1.01 | 0.906 | 0.78 | 1.11 | 1.17 | 1.02 | 0.939 | 1.18 | 0.762 | 0.755 | 0.716 | 0.688 | 0.721 | 0.455 | 0.421 | 0.477 | 0.51 | 0.473 | 0.983
LOU-NH91 | 0.743 | 0.699 | 0.685 | 0.721 | 0.475 | 0.597 | 0.472 | 0.605 | 0.512 | 0.942 | 0.887 | 0.94 | 0.912 | 0.89 | 0.402 | 0.395 | 0.382 | 0.389 | 0.429 | 0.646
LU99A | 0.528 | 0.524 | 0.516 | 0.558 | 1.11 | 1.04 | 0.99 | 0.92 | 1.26 | 0.255 | 0.289 | 0.178 | 0.243 | 0.287 | 0.193 | 0.162 | 0.196 | 0.195 | 0.163 | 0.518
LXF-289 | 1.03 | 1.04 | 1.07 | 1.03 | 1.02 | 0.993 | 0.976 | 1.03 | 0.957 | 1.07 | 1.02 | 1.08 | 1.06 | 1.03 | 0.912 | 0.763 | 0.964 | 1.04 | 0.919 | 1.09
NCI-H23 | 0.971 | 0.745 | 0.811 | 0.791 | 1.08 | 1.2 | 1.02 | 0.86 | 1.19 | 0.302 | 0.271 | 0.288 | 0.354 | 0.349 | 0.568 | 0.733 | 0.758 | 0.787 | 0.799 | 0.473
NCI-H322M | 0.902 | 0.917 | 0.88 | 0.827 | 1.08 | 1.15 | 1.35 | 1.27 | 1.39 |  | 0.773 | 0.744 | 0.747 | 0.874 |  | 0.669 | 0.622 | 0.636 | 0.585 | 0.906
NCI-H441 | 0.885 | 0.783 | 0.713 | 0.646 | 0.514 | 0.601 | 0.831 | 0.45 | 0.387 | 0.627 | 0.525 | 0.624 | 0.441 | 0.453 | 0.288 | 0.241 | 0.236 | 0.25 | 0.248 | 0.382
NCI-H460 | 0.536 | 0.458 | 0.514 | 0.568 | 1.18 | 1.09 | 1.21 | 1.08 | 1.05 | 0.413 | 0.444 | 0.487 | 0.291 | 0.447 | 0.0559 | 0.0709 | 0.0574 | 0.0584 | 0.0641 | 0.327
NCI-H520 | 1.05 | 1.08 | 0.959 | 0.922 | 0.577 | 0.661 | 0.63 | 0.697 | 0.779 | 0.33 | 0.376 | 0.31 | 0.322 | 0.331 | 0.803 | 0.625 | 0.669 | 0.586 | 0.637 | 0.732
NCI-H596 | 0.6 | 0.501 | 0.455 | 0.516 |  | 1.04 | 0.761 | 0.918 | 1.13 | 0.749 | 0.765 | 0.704 | 0.625 | 0.791 | 0.456 | 0.492 | 0.472 | 0.469 | 0.479 | 0.427
NCI-H647 | 1.19 | 1.16 | 1.24 | 1.13 | 1 | 1.01 | 0.735 | 1.05 | 1.41 | 0.622 | 0.579 | 0.705 | 0.479 | 0.488 | 0.173 | 0.192 | 0.119 | 0.2 | 0.178 | 1.06
NCI-H650 | 1.15 | 0.956 | 1.15 | 1.26 | 0.835 | 0.926 | 0.882 | 0.751 | 0.961 | 0.349 | 0.413 | 0.437 | 0.303 | 0.388 | 0.935 | 0.943 | 0.993 | 0.893 | 0.945 | 0.855
NCI-H661 | 0.483 | 0.713 | 0.791 | 0.59 | 0.78 | 0.933 | 0.758 | 0.694 | 0.771 | 0.782 | 0.754 | 0.768 | 0.719 | 0.726 | 0.909 | 0.956 | 0.967 | 0.969 | 0.905 | 0.51
NCI-H838 | 1.05 | 0.927 | 1.01 | 0.959 | 0.965 | 0.692 | 0.952 | 1.05 | 1.18 | 0.844 | 0.771 | 0.836 | 0.712 | 0.735 | 0.258 | 0.251 | 0.249 | 0.23 | 0.225 | 0.825
NCI-H1355 | 0.98 | 0.894 | 0.848 | 0.787 | 1.23 | 1.28 | 1.21 | 1.02 | 1.24 | 0.838 | 0.791 | 0.773 | 0.65 | 0.71 | 1.07 | 1.17 | 1.02 | 0.937 | 1 | 0.696
NCI-H1437 | 1.07 | 0.888 | 1.04 | 0.885 | 0.562 | 0.569 | 0.703 | 0.563 | 0.747 | 0.677 | 0.638 | 0.639 | 0.63 | 0.572 | 0.338 | 0.309 | 0.356 | 0.346 | 0.314 | 0.882
NCI-H1651 | 0.9 | 0.963 | 0.931 | 0.886 | 0.831 | 0.988 | 1 | 0.893 | 0.957 | 0.187 | 0.181 | 0.169 | 0.169 | 0.18 | 0.542 | 0.643 | 0.633 | 0.556 | 0.623 | 0.736
NCI-H1666 | 1.08 | 0.876 | 1.01 | 0.927 | 0.819 | 0.838 | 0.782 |  | 0.857 | 0.703 | 0.714 | 0.734 | 0.766 | 0.75 | 0.9 | 1.02 | 0.847 | 1.02 | 0.863 | 
NCI-H1734 | 0.752 | 0.705 | 0.671 | 0.733 | 1.08 | 0.968 | 1.03 |  | 0.935 | 0.722 | 0.633 | 0.654 | 0.492 | 0.574 | 0.479 | 0.438 | 0.429 | 0.426 | 0.42 | 
NCI-H1755 | 0.991 | 0.936 | 0.948 | 0.898 | 1.01 | 0.98 | 0.967 | 0.83 | 1.01 | 0.912 | 0.868 | 0.852 | 0.766 | 0.83 | 0.496 | 0.495 | 0.475 | 0.435 | 0.402 | 0.83
NCI-H1792 | 0.763 | 0.677 | 0.693 | 0.558 | 0.834 | 0.917 | 1.01 | 0.867 | 0.862 | 0.266 | 0.404 | 0.576 |  | 0.292 | 0.993 | 0.842 | 0.79 |  | 0.844 | 0.702
NCI-H1915 | 1.02 | 0.963 | 1.04 | 1.04 | 1.02 | 1 | 0.912 | 0.955 | 0.972 | 0.25 | 0.292 | 0.258 | 0.208 | 0.26 | 0.478 | 0.491 | 0.552 | 0.538 | 0.452 | 0.992
NCI-H1975 | 0.71 | 0.62 | 0.653 | 0.523 | 0.337 | 0.303 | 0.34 | 0.331 | 0.351 | 0.78 | 0.731 | 0.804 | 0.722 | 0.806 | 0.313 | 0.275 | 0.299 | 0.288 | 0.29 | 0.526
NCI-H1993 | 0.788 | 0.675 | 0.736 | 0.693 | 1.09 | 1.13 | 1.25 | 0.764 | 1.12 | 0.831 | 1.11 | 1.13 |  | 1.09 | 0.5 | 0.669 | 0.634 |  | 0.542 | 0.653
NCI-H2009 | 1.21 | 1.12 | 1.17 | 1.25 | 1.03 | 1.04 | 0.969 | 1.07 | 1.12 | 0.643 | 0.745 | 0.67 | 0.644 | 0.625 | 1.14 | 1.1 | 1.01 | 1.14 | 0.957 | 1.13
NCI-H2023 | 0.674 | 0.595 | 0.596 | 0.617 | 0.994 | 1.1 | 1.09 | 0.92 | 1.06 | 0.5 | 0.444 | 0.437 | 0.374 | 0.492 | 0.283 | 0.235 | 0.242 | 0.256 | 0.204 | 0.447
